Experimental findings from patent US20260184712A1, “Heterocyclic Compounds as ENT Inhibitors and Compounds for Use in the Treatment of Cancers” (iTeos Belgium SA, priority 2022, published 2026) are described below.

The IC50 is the concentration that gives 50% inhibition.

One experiment concerns the target T1, human ENT1 (Homo sapiens, UniProt Q99808).
T1 construct: JAR cells expressing ENT1 were purchased from ATCC; host or cells: JAR cells
T1 sequence (Q99808 1-456): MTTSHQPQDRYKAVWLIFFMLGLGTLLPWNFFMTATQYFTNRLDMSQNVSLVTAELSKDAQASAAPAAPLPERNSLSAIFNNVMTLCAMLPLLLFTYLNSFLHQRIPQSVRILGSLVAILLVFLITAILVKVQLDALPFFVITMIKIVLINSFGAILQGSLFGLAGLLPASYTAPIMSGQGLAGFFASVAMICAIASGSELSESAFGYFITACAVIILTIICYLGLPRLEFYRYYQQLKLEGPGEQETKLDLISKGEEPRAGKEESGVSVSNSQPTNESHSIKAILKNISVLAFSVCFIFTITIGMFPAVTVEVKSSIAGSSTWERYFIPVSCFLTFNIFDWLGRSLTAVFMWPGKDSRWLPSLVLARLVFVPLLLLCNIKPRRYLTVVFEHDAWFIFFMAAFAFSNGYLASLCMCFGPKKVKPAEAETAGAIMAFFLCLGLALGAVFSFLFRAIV
Description: ENT1 binding assay (competition with Sahenta-DY647 on JAR cells). Particulars: competition with SAHENTA-DY647 binding; IC50 categorized; read-out: Binding Assay IC50. Summed up: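 Fluorescent-tracer displacement: compound incubated with JAR cells 30 min, 4 °C, before Sahenta-DY647 (100 nM) for another 30 min, 4 °C, in Hepes-buffered HBSS with 0.1% BSA. Bound tracer read at 670 nm after washes; IC50 from four-parameter fit, reported as mean of pIC50 values.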
As for `C[C@H]1O[C@@H](n2c(NC3CCS(=O)(=O)CC3)nc3c(OCc4ccc([N+](=O)[O-])cc4)ncnc32)[C@H](O)[C@@H]1O` [Compound 31], the IC50 is < 1 nM.
Same read-out and setting: the result for `C[C@H]1O[C@@H](n2c(NCCCO)nc3c(OCc4ccc(OC(F)F)cc4)ncnc32)[C@H](O)[C@@H]1O` [Compound 44] reads 1 to 20 nM; that for `C[C@H]1O[C@@H](n2c(NC3CCC(F)(F)CC3)nc3c(OCc4ccc([N+](=O)[O-])cc4)ncnc32)[C@H](O)[C@@H]1O` [Compound 10], 1 to 20 nM; that for `C[C@H]1O[C@@H](n2c(NC3CCC(F)(F)C3)nc3c(OCc4ccc([N+](=O)[O-])cc4)ncnc32)[C@H](O)[C@@H]1O` (stereo partly drawn) [Compound 9], < 1 nM.
For `C[C@H]1O[C@@H](n2c(NC3CCOC3)nc3c(OCc4ccc([N+](=O)[O-])cc4)ncnc32)[C@H](O)[C@@H]1O` (stereo partly drawn) [Compound 18], the IC50 lay within 1 to 20 nM.
For `C[C@H]1O[C@@H](n2c(NC3CCS(=O)(=O)CC3)nc3c(OCc4ccc(C#N)cc4)ncnc32)[C@H](O)[C@@H]1O` [Compound 54], the IC50 is < 1 nM.
The same measure, in the same setting: the result for `CC(C)Nc1nc2c(OCc3ccc(C#N)cc3)ncnc2n1[C@@H]1O[C@H](C)[C@@H](O)[C@H]1O` [Compound 40] reads 1 to 20 nM; that for `CC(C)Nc1nc2c(N3CCc4ccc(C#N)cc4C3)ncnc2n1[C@@H]1O[C@H](C)[C@@H](O)[C@H]1O` [Compound 154], 1 to 20 nM; that for `C[C@H]1O[C@@H](n2cnc3c(OCc4ccc(Cl)cc4)ncnc32)[C@H](O)[C@@H]1O` [Compound 187], 20 to 500 nM.
Still for that read-out and setting: next, `OCCOC[C@H]1O[C@@H](n2cnc3c(OCc4ccc(OC(F)F)cc4)nc(Cl)nc32)[C@H](O)[C@@H]1O` [Compound 162]: 1 to 20 nM; `C[C@H]1O[C@H](n2c(NCc3ccccc3)nc3c(OCc4ccc(OC(F)F)cc4)ncnc32)[C@H](O)[C@@H]1O` [Compound 8]: 1 to 20 nM; `C[C@H]1O[C@@H](n2c(NC3CC3)nc3c(OCc4ccc([N+](=O)[O-])cc4)ncnc32)[C@H](O)[C@@H]1O` [Compound 26]: 1 to 20 nM.

A further experiment concerns the target T2, Human ENT2 (Homo sapiens, UniProt Q14542).
T2 construct: expressed in transfected cells
T2 sequence (Q14542 1-456): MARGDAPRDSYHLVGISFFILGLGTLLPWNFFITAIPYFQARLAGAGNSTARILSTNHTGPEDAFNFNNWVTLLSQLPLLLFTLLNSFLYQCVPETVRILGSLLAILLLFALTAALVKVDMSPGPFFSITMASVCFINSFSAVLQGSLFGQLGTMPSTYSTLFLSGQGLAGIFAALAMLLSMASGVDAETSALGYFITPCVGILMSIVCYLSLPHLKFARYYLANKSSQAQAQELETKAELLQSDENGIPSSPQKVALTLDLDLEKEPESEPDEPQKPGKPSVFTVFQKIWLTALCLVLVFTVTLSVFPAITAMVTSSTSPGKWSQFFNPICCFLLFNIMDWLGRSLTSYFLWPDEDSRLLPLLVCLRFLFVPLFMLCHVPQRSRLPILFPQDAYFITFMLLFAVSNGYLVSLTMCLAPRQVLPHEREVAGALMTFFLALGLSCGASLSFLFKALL
In words: Adenosine uptake assay, ENT2-mediated transport in MDCKII cells. Type of experiment: cell-based. The following applies: MDCKIIENT2-LV cells, probe adenosine 0.5 μM, pre-incubation 30 min, incubation 10 min. The procedure: The goal of this study was to determine the potency and selectivity of ENT1 inhibitors by measuring ENT1 and ENT2-mediated transport using an in vitro cellular uptake assay.
Human ENT1 and ENT2 transporters were stably expressed in Madin-Darby Canine Kidney II (MDCKII) cells via transduction. Cell lines overexpressing the relevant ENT1 or ENT2 molecules were preincubated with a dose range of the relevant compound for 30 minutes before introduction of the specific substrate at the concentration indicated in the Table assay parameters below. The transporter assay was conducted for the time specified in the Table assay parameters before the specific uptake of the substrate into the cells was quantified. Specific uptake was determined by comparing the uptake from the cells treated with the relevant compounds and the uptake by cells not overexpressing the transporter in question.
Specific uptake for each concentration of the test sample was normalized to the DMSO control value to generate a relative accumulation value (or relative transporter activity). Data were plotted against the log molar concentration of the test reagent used. IC50 values were generated with Prism version 9.4.1 and the following function: log(inhibitor) vs. response—Variable slope (four parameters).
Turning to `O=[N+]([O-])c1ccc(CSc2ncnc3c2ncn3[C@@H]2O[C@H](CO)[C@@H](O)[C@H]2O)cc1` [NBMPR, reference compound], the IC50 is > 1000 nM.
Take `COc1cc(C(=O)OCCCN2CCCN(CCCOC(=O)c3cc(OC)c(OC)c(OC)c3)CC2)cc(OC)c1OC` [Dilazep, dilazep, reference compound]: the IC50 is > 1000 nM.

A further experiment deals with stimulated primary human T cells. In words: T cell proliferation assay, Condition A (X-VIVO15). It is filed as cell-based. The following applies: Condition A: X-VIVO15 medium; anti-CD3/anti-CD28 beads, ATP, 4 days; CFSE-lo T cells. Put shortly:
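CFSE-labelled human CD3+ T cells (2×10^4/well) in serum-free X-VIVO15 were activated with anti-CD3/CD28 beads (1 bead:2 cells), pre-incubated 30 min with inhibitor, then cultured with 100 uM ATP for 4 days at 37 °C. Flow cytometry measured %CFSE^lo cells, and IC50/IC90 came from log-concentration curve fits.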
For the compound `O=[N+]([O-])c1ccc(CSc2ncnc3c2ncn3[C@@H]2O[C@H](CO)[C@@H](O)[C@H]2O)cc1` [NBMPR, reference compound], the 50% inhibitory concentration (IC50) was 1 to 20 nM.

The experiment is the same for the next values; noted with them: Homo sapiens, T-cell, 96 h; Condition A: X-VIVO15 medium; anti-CD3/anti-CD28 beads, ATP, 4 days; CFSE-lo T cells.
`COc1cc(C(=O)OCCCN2CCCN(CCCOC(=O)c3cc(OC)c(OC)c(OC)c3)CC2)cc(OC)c1OC` [Dilazep, dilazep, reference compound]: the IC50 lay within 1 to 20 nM.
On the same count and under the same terms, next, `C[C@H]1O[C@@H](n2c(NC3CCS(=O)(=O)CC3)nc3c(OCc4ccc([N+](=O)[O-])cc4)ncnc32)[C@H](O)[C@@H]1O` [Compound 31]: < 1 nM; `C[C@H]1O[C@@H](n2c(NCCCO)nc3c(OCc4ccc(OC(F)F)cc4)ncnc32)[C@H](O)[C@@H]1O` [Compound 44]: 1 to 20 nM; `C[C@H]1O[C@@H](n2c(NC3CCC(F)(F)CC3)nc3c(OCc4ccc([N+](=O)[O-])cc4)ncnc32)[C@H](O)[C@@H]1O` [Compound 10]: < 1 nM.
Same read-out and setting: the result for `C[C@H]1O[C@@H](n2c(NC3CCC(F)(F)C3)nc3c(OCc4ccc([N+](=O)[O-])cc4)ncnc32)[C@H](O)[C@@H]1O` (stereo partly drawn) [Compound 9] reads < 1 nM; that for `C[C@H]1O[C@@H](n2c(NC3CCOC3)nc3c(OCc4ccc([N+](=O)[O-])cc4)ncnc32)[C@H](O)[C@@H]1O` (stereo partly drawn) [Compound 18], < 1 nM; that for `C[C@H]1O[C@@H](n2c(NC3CCS(=O)(=O)CC3)nc3c(OCc4ccc(C#N)cc4)ncnc32)[C@H](O)[C@@H]1O` [Compound 54], < 1 nM.
With `CC(C)Nc1nc2c(OCc3ccc(C#N)cc3)ncnc2n1[C@@H]1O[C@H](C)[C@@H](O)[C@H]1O` [Compound 40], the IC50 was < 1 nM.
Still for that read-out and setting: the result for `CC(C)Nc1nc2c(N3CCc4ccc(C#N)cc4C3)ncnc2n1[C@@H]1O[C@H](C)[C@@H](O)[C@H]1O` [Compound 154] reads 1 to 20 nM; that for `C[C@H]1O[C@@H](n2cnc3c(OCc4ccc(Cl)cc4)ncnc32)[C@H](O)[C@@H]1O` [Compound 187], 1 to 20 nM.
Take `OCCOC[C@H]1O[C@@H](n2cnc3c(OCc4ccc(OC(F)F)cc4)nc(Cl)nc32)[C@H](O)[C@@H]1O` [Compound 162]: the IC50 lay within 1 to 20 nM.
On the same count and under the same terms, the result for `C[C@H]1O[C@H](n2c(NCc3ccccc3)nc3c(OCc4ccc(OC(F)F)cc4)ncnc32)[C@H](O)[C@@H]1O` [Compound 8] reads < 1 nM; that for `C[C@H]1O[C@@H](n2c(NC3CC3)nc3c(OCc4ccc([N+](=O)[O-])cc4)ncnc32)[C@H](O)[C@@H]1O` [Compound 26], 1 to 20 nM.

The next experiment shares this test system. Description: T cell proliferation assay, Condition B (X-VIVO15, 2% HSA and 0.1% AAG). Type of experiment: cell-based. Particulars: Condition B: X-VIVO15 medium containing HSA and α1-Acid Glycoprotein; anti-CD3/anti-CD28 beads, ATP, 4 days; CFSE-lo T cells. Put shortly:
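CFSE-labelled CD3+ T cells from healthy donors (2×10^4/well) in X-VIVO15 with 2% HSA and 0.1% AAG were stimulated with anti-CD3/CD28 beads. After 30 min pre-incubation with inhibitor, ATP was added and cells were cultured 4 days at 37° C. Flow cytometry gave % CFSE^lo cells, with IC50/IC90 and pICF from curve fits.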
The compound `O=[N+]([O-])c1ccc(CSc2ncnc3c2ncn3[C@@H]2O[C@H](CO)[C@@H](O)[C@H]2O)cc1` [NBMPR, reference compound] returned an IC50 of 20 to 500 nM.

The experiment is the same for the next values; noted with them: Homo sapiens, T-cell, 96 h; Condition B: X-VIVO15 medium containing HSA and α1-Acid Glycoprotein; anti-CD3/anti-CD28 beads, ATP, 4 days; CFSE-lo T cells.
Regarding `COc1cc(C(=O)OCCCN2CCCN(CCCOC(=O)c3cc(OC)c(OC)c(OC)c3)CC2)cc(OC)c1OC` [Dilazep, dilazep, reference compound], the IC50 fell in the range of 20 to 500 nM.
Turning to `C[C@H]1O[C@@H](n2c(NC3CCS(=O)(=O)CC3)nc3c(OCc4ccc([N+](=O)[O-])cc4)ncnc32)[C@H](O)[C@@H]1O` [Compound 31], the IC50 lay in the range of 1 to 20 nM.
The same measure, in the same setting: next, `C[C@H]1O[C@@H](n2c(NCCCO)nc3c(OCc4ccc(OC(F)F)cc4)ncnc32)[C@H](O)[C@@H]1O` [Compound 44]: 20 to 500 nM; `C[C@H]1O[C@@H](n2c(NC3CCC(F)(F)CC3)nc3c(OCc4ccc([N+](=O)[O-])cc4)ncnc32)[C@H](O)[C@@H]1O` [Compound 10]: 1 to 20 nM; `C[C@H]1O[C@@H](n2c(NC3CCC(F)(F)C3)nc3c(OCc4ccc([N+](=O)[O-])cc4)ncnc32)[C@H](O)[C@@H]1O` (stereo partly drawn) [Compound 9]: 1 to 20 nM.
Take `C[C@H]1O[C@@H](n2c(NC3CCOC3)nc3c(OCc4ccc([N+](=O)[O-])cc4)ncnc32)[C@H](O)[C@@H]1O` (stereo partly drawn) [Compound 18]: the IC50 was in the range of 1 to 20 nM.
Take `C[C@H]1O[C@@H](n2c(NC3CCS(=O)(=O)CC3)nc3c(OCc4ccc(C#N)cc4)ncnc32)[C@H](O)[C@@H]1O` [Compound 54]: the IC50 fell in the range of 20 to 500 nM.
`CC(C)Nc1nc2c(OCc3ccc(C#N)cc3)ncnc2n1[C@@H]1O[C@H](C)[C@@H](O)[C@H]1O` [Compound 40] had an IC50 of 20 to 500 nM.
Same read-out and setting: next, `CC(C)Nc1nc2c(N3CCc4ccc(C#N)cc4C3)ncnc2n1[C@@H]1O[C@H](C)[C@@H](O)[C@H]1O` [Compound 154]: > 500 nM; `C[C@H]1O[C@@H](n2cnc3c(OCc4ccc(Cl)cc4)ncnc32)[C@H](O)[C@@H]1O` [Compound 187]: > 500 nM.
As for `OCCOC[C@H]1O[C@@H](n2cnc3c(OCc4ccc(OC(F)F)cc4)nc(Cl)nc32)[C@H](O)[C@@H]1O` [Compound 162], the IC50 is 20 to 500 nM.
The compound `C[C@H]1O[C@H](n2c(NCc3ccccc3)nc3c(OCc4ccc(OC(F)F)cc4)ncnc32)[C@H](O)[C@@H]1O` [Compound 8] gave an IC50 of 20 to 500 nM.
As to `C[C@H]1O[C@@H](n2c(NC3CC3)nc3c(OCc4ccc([N+](=O)[O-])cc4)ncnc32)[C@H](O)[C@@H]1O` [Compound 26], the IC50 fell in the range of 20 to 500 nM.
